# How the values were obtained:
# male SD rats [1] = assay: Quantification of rat Plasma MPs by Annexin V flow cytometry after intracerebroventricular injection; assay type: in vivo; settings: LPS 50 μg/animal intracerebroventricular vs saline; plasma after 24 hours; FIG. 3B
# Procedure: (§1) Two groups of male SD rats (n=8 for each group) were intracerebroventricularly injected with either vehicle (Saline; NaCl 0.9%) or a test substance (Lipopolysaccharides; LPS). After 24 hours, CSF was collected directly in the cisterna magna and blood was obtained by retro-orbital puncture from each animal. CS-MPs and plasma MPs populations were prepared as described in the Materials & Methods of Example 1 and the concentrations of CS-MPs (A) and Plasma MPs (B) populations in the samples were quantified for both groups of animals by flow cytometry. Data are expressed as Mean±SEM (*: p<0.05). […] In a control experiment (C), the CSF and blood samples were collected respectively in the cisterna magna and by retro-orbital, puncture from healthy male SD rats (n=8). CS-MPs and Plasma MPs populations were prepared as described in the Materials & Methods section of Example 1 and then quantified by flow cytometry. Data are expressed as Mean±SEM (*: p<0.05). […]
# (§2) The quantifications were performed using a FC500 flow cytometer (Beckman-Coulter, France) by incubating for 30 minutes in the dark each samples (30 μl) with 60 ng of His-tagged, Fluorescein-labelled Annexin V in incubation buffer (2.5 mM CaCl2, 140 mM NaCl, 10 mM HEPES pH 7.4). […] Each sample was then analyzed by flow cytometry. […]
# male SD rats [2] = assay: Quantification of rat CS-MPs in CSF by Annexin V flow cytometry after intracerebroventricular injection; assay type: in vivo; settings: LPS 50 μg/animal intracerebroventricular vs saline; CSF from cisterna magna after 24 hours; FIG. 3A
# Procedure: as §1, §2
# IL1beta = assay: Gene expression of inflammatory markers in rat brain after intracerebroventricular injection (RT-QPCR); assay type: in vivo; settings: LPS 50 μg/animal intracerebroventricular; rat brain (cortex, striatum, hippocampus); relative to 36B4 mRNA
# Procedure: (§3) This experiment was elaborated on the basis of protocols described in previous publications (Sanna P et al., 1995). Briefly, male SD rats (225-250 g, CERJ, France) were anesthetized with pentobarbital (55 mg/kg) and positioned in a stereotaxic frame. Then, they received an intracerebroventricular injection of LPS (50 μg/animal in 3.3 μl of saline buffer) or saline (NaCl 0.9%) using a Kopf apparatus. The coordinates for the sterotaxic injections were −2.3 mm dorsal/ventral, −1.4 mm lateral, and −0.6 mm anterior/posterior from the bregma.
# (§4) Total RNA was extracted using Qiagen RNA extraction kits following manufacturer's instructions. Total RNA was treated with DNase I (Ambion Inc., Austin, Tex., USA) at 37° C. for 30 minutes, followed by inactivation at 75° C. for 5 minutes. Real time quantitative PCR (RT-QPCR) assays were performed using an Applied Biosystems 7900 sequence detector. Total RNA (1 μg) was reverse transcribed with random hexamers using Taqman reverse-transcription reagents kit (Applied Biosystems) following the manufacturer's protocol. Gene expression levels were determined by Sybr green assays. 36B4 transcript was used as an internal control to normalize the variations for RNA amounts. Gene expression levels are expressed relative to 36B4 mRNA levels.
# (§5) The specific primers used for the quantification were: […]
# TNFalpha = assay: as above; assay type: in vivo; settings: LPS 50 μg/animal intracerebroventricular; rat brain (cortex, striatum, hippocampus); relative to 36B4 mRNA
# Procedure: as §3, §4, §5
# SH-SY5Y cells [3] = assay: Two-dimensional gel electrophoresis of MPs from SH-SY5Y cells; assay type: cell-based, human; settings: MPs from SH-SY5Y cells treated with Staurosporine 100 and 500 nM vs vehicle; FIG. 5B
# Procedure: (§6) The SH-SY5Y cells were maintained and differentiated in cell culture conditions as described under the Materials & Methods section of Example 2. Cells were then treated for 24 hours with Staurosporine at two different concentrations or with vehicle only. At the end of the treatment, culture medium was collected and MPs were isolated and subsequently quantified by flow cytometry. Those results are representative of several independent experiments. The resulting MPs populations have been isolated and characterized by flow cytometry (A) or by two-dimensional gel electrophoresis (B) as described in the Materials and Methods section. The three gels have been compared in an area comprised between approximately 10-60 kDa and pl 3.0 to 7.0. The boxes (named C, 1, and 2) define specific areas of interest in the captured images.
# (§7) The human neuronal cell line SH-SY5Y (ATCC CRL-2266) was cultured in MEM/Ham's F12 medium (1:1) supplemented with 10% foetal bovine serum. Cells were seeded at 55,000 cells/cm^2. Cell differentiation was induced by adding 9-cis retinoic acid (5 μM) for 5 days directly to complete culture medium. […]
# MPs populations were obtained from Staurosporine-induced SH-SY5Y cells as indicated above. […] Non-protein impurities were removed using the ReadyPrep 2D Cleanup kit prior to isoelectrofocalisation (IEF) steps. […]
# SH-SY5Y cells [4] = assay: Quantification of Annexin V-positive MPs released by differentiated SH-SY5Y cells (flow cytometry); assay type: cell-based, human; settings: 24 hours treatment, Staurosporine 100 and 500 nM vs vehicle DMSO 0.1%, FIG. 5A
# Procedure: as §6
# as §7, with “medium. After 5 days, medium was replaced with complete medium supplemented with BDNF (50 ng/ml) for additional 5 days.” for “medium.”
# MPs quantifications were performed by flow cytometry using fluorescein-labelled, His-tagged Annexin V, as indicated in Example 1 for CS-MPs and Plasma MPs.
compound,measurement,setting,value
Lipopolysaccharides [LPS],change of Plasma MPs,male SD rats [1],without a simultaneous and significant increase
same,induction of CS-MP levels,male SD rats [2],3 fold
same,induction of IL1beta gene expression,IL1beta,40 fold
same,induction of TNFalpha gene expression,TNFalpha,6 fold
CN[C@@H]1C[C@H]2O[C@@](C)([C@@H]1OC)n1c3ccccc3c3c4c(c5c6ccccc6n2c5c31)C(=O)NC4 [Staurosporine],protein content of MPs on two-dimensional gel,SH-SY5Y cells [3],evident enrichment in proteins
same,change in Annexin V-positive MPs in cell culture medium,SH-SY5Y cells [4],significant and dose-dependent increase

# From US20120178177A1, “Biological Components Within the Cerebrospinal Fluid” (priority 2009, published 2012)
